Measurements reported in patent publication US20250215071A1, “Novel Mcl-1 inhibitor and combination of Mcl-1 and a BH3 mimetic, such as a Bcl-2 inhibitor” (NETRIS PHARMA, priority 2022, published 2025).

Tested on: Mcl-1
Assay: Mcl-1 protein levels by western blot in HeLa UNC5B cells
Type: cell-based, Human
Conditions: 2 μg/mL Dox
Procedure: FIG. 4. UNC5B triggers proteasomal degradation of Mcl-1. (A,B): UNC5B-induced apoptosis requires proteasome activity. Stable Hela cells inducible for UNC5B (HeLa UNC5B) were treated with doxycycline (Dox) at 2 μg/mL, in combination with the indicated doses of the proteasome inhibitors MG132 and bortezomib (BTZ). 18 hours after treatment, apoptosis was measured by DNA fragmentation (A) and caspase-3 activity (B) (n=3-4, **** p<0.0001, ordinary two-way ANOVA with Tukey's multiple comparisons test). Values are given as means±SEM Treatment with proteasome inhibitors was sufficient to strongly reduce apoptosis induction upon UNC5B over-expression. (C): UNC5B triggers Mcl-1 degradation. HeLa UNC5B cells were treated with 2 μg/mL of Dox, in combination with bortezomib (BTZ, 1 μM) and the pan-caspase inhibitor Q-VD-OPh (QVD, 10 µM) inhibitors. 16 hours after treatment, cells were lysed by scraping and sonication in SDS-containing buffer. Protein levels of Mcl-1, Bcl-2 and Bcl-XL, as well as of UNC5B and B-actin, used as housekeeping gene, were evaluated by western blot. […] UNC5B over-expression specifically promoted Mcl-1 protein decrease. […] (D): Mcl-1 degradation induced by UNC5B requires COMMD2/CRL3 complex. HeLa UNC5B cells were transfected with scramble (siCTRL), COMMD2 (siCOMMD2) or RBX1 (siRBX1) siRNAs. […] Protein levels of Mcl-1, UNC5B and Ku80, used as housekeeping protein, were evaluated by western blot. […] Stable HeLa UNC5B cells, constitutively expressing Mcl-1 or empty vector, were treated with doxycycline and apoptosis was evaluated 18 hours later by DNA fragmentation (n=3, ^nsp>0.05, ordinary two-way ANOVA with Sidak's multiple comparisons test). […] Stable HeLa UNC5B cells, constitutively expressing Mcl-1, Bcl-2 or Bcl-XL were treated with Dox and protein levels were evaluated as described in (C). […] 18 hours later, protein levels of Mcl-1, UNC5B and β-actin, used as housekeeping gene, were evaluated by western blot. […] Cells were harvested at the indicated times after CHX treatment, and protein levels were assessed by western blot. […]

Structure (SMILES): CC(C)C[C@H](NC(=O)[C@H](Cc1ccccc1)NC(=O)c1cnccn1)B(O)O [bortezomib]
- degradation of ectopically-expressed Mcl-1 (HeLa UNC5B cells constitutively expressing Mcl-1, 18 hours): restrained the degradation
- Mcl-1 protein levels / degradation triggered by UNC5B (endogenous Mcl-1, BTZ 1 μM, QVD 10 µM, 16 hours): increased but similar Mcl-1 protein levels in both untreated and doxycycline-treated cells
